Results as given in ChEMBL document CHEMBL1221241, “Discovery of tetrahydroisoquinoline (THIQ) derivatives as potent and orally bioavailable LFA-1/ICAM-1 antagonists” (Bioorg Med Chem Lett, 2010).

Legend:
[1] = Clearance in Sprague-Dawley rat at 5 mg/kg, iv; format: ADME, organism-based; design: dose 5 mg/kg, route intravenous; conditions: in vivo
[2] = Half life in Sprague-Dawley rat at 5 mg/kg, iv; format: ADME, organism-based; design: dose 5 mg/kg, route intravenous; conditions: in vivo
[3] = AUC in Sprague-Dawley rat at 5 mg/kg, iv; format: ADME, organism-based; design: dose 5 mg/kg, route intravenous; conditions: plasma
[4] = biological target: Intercellular adhesion molecule (ICAM-1), Integrin alpha-L/beta-2 (Homo sapiens, UniProt P05107+P05362+P20701); test: Inhibition of LFA1/ICAM1 interaction in human Hut-78 cells by cell migration assay; format: cell-based
[5] = Cmax in C57BL/6 mouse at 100 mg/kg, po; format: ADME, organism-based; design: dose 100 mg/kg, route oral; conditions: in vivo
[6] = AUClast in C57BL/6 mouse at 100 mg/kg, po; format: ADME, organism-based; design: time 0 - last, dose 100 mg/kg, route oral; conditions: plasma
[7] = Cmax in Sprague-Dawley rat at 20 mg/kg, po; format: ADME, organism-based; design: dose 20 mg/kg, route oral; conditions: in vivo
[8] = AUClast in Sprague-Dawley rat at 20 mg/kg, po; format: ADME, organism-based; design: time 0 - last, dose 20 mg/kg, route oral; conditions: plasma
[9] = Tmax in Sprague-Dawley rat at 20 mg/kg, po; format: ADME, organism-based; design: dose 20 mg/kg, route oral; conditions: in vivo
[10] = AUClast in C57BL/6 mouse at 20 mg/kg, po; format: ADME, organism-based; design: time 0 - last, dose 20 mg/kg, route oral; conditions: plasma
[11] = Tmax in C57BL/6 mouse at 100 mg/kg, po; format: ADME, organism-based; design: dose 100 mg/kg, route oral; conditions: in vivo
Mus musculus [12] = test: Reduction of neutrophil migration in po dosed thioglycollate-induced C57BL/6 mouse peritonitis model administered 15 mins before thioglycollate challenge measured after 4 hrs; format: functional
[13] = Tmax in C57BL/6 mouse at 20 mg/kg, po; format: ADME, organism-based; design: dose 20 mg/kg, route oral; conditions: in vivo
[14] = Apparent permeability of the compound from basolateral to apical side in MDCK cells; format: ADME, cell-based, Canis lupus familiaris; conditions: dog
[15] = Oral bioavailability in Sprague-Dawley rat at 100 mg/kg; format: ADME, organism-based; conditions: in vivo
[16] = Apparent permeability of the compound from apical to basolateral side in MDCK cells; format: ADME, cell-based, Canis lupus familiaris; conditions: dog
[17] = Oral bioavailability in C57BL/6 mouse at 20 mg/kg; format: ADME, organism-based; conditions: in vivo
[18] = Oral bioavailability in Sprague-Dawley rat at 20 mg/kg; format: ADME, organism-based; conditions: in vivo
[19] = Cmax in C57BL/6 mouse at 20 mg/kg, po; format: ADME, organism-based; design: dose 20 mg/kg, route oral; conditions: in vivo
Mus musculus [20] = test: Reduction of neutrophil migration in iv dosed thioglycollate-induced C57BL/6 mouse peritonitis model administered 15 mins before thioglycollate challenge measured after 4 hrs; format: functional

Sequence of Intercellular adhesion molecule (ICAM-1), Integrin alpha-L/beta-2 (P20701 whole entry): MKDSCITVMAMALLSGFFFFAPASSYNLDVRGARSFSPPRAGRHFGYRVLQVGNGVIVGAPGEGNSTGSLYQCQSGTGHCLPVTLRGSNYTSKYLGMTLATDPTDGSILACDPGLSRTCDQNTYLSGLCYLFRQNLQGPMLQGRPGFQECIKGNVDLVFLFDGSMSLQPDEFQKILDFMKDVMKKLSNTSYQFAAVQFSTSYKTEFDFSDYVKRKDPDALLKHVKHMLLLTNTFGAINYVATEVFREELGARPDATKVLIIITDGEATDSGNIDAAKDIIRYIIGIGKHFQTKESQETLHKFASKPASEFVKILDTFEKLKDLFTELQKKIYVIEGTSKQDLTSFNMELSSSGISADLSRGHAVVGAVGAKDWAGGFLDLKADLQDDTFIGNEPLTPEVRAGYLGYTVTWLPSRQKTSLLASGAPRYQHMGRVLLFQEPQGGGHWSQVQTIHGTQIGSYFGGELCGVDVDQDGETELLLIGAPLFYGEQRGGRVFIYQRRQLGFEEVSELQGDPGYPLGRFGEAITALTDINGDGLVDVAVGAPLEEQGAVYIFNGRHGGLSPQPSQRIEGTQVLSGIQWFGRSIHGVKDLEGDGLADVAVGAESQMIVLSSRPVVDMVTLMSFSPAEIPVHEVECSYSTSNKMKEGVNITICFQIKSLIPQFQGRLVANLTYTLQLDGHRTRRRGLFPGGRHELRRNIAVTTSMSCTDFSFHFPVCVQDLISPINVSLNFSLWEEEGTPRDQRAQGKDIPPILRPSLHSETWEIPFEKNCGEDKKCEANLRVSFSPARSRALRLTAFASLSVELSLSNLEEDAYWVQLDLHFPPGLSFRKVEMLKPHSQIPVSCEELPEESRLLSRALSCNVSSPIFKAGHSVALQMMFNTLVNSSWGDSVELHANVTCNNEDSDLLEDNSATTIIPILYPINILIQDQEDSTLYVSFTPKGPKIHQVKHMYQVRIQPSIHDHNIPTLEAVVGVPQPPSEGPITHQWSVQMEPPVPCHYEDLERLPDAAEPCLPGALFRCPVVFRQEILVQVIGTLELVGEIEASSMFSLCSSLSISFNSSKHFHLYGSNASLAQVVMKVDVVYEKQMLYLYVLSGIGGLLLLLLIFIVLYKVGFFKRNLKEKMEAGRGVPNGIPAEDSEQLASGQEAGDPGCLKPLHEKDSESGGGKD
Sequence of Intercellular adhesion molecule (ICAM-1), Integrin alpha-L/beta-2 (P05362 whole entry): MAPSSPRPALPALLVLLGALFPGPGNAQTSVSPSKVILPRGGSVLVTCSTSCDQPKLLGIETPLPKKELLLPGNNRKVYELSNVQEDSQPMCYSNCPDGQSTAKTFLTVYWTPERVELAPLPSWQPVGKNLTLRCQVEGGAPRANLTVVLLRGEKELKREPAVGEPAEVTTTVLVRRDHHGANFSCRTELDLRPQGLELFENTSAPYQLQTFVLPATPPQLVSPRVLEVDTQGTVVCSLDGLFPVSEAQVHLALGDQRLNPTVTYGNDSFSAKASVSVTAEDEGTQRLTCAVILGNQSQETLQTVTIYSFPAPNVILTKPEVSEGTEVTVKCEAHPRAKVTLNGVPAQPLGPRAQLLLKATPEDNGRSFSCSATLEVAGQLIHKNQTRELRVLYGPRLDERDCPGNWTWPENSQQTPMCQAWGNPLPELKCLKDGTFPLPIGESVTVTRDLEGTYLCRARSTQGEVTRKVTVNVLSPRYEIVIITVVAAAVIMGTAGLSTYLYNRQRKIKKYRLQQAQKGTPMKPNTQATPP
Sequence of Intercellular adhesion molecule (ICAM-1), Integrin alpha-L/beta-2 (P05107 whole entry): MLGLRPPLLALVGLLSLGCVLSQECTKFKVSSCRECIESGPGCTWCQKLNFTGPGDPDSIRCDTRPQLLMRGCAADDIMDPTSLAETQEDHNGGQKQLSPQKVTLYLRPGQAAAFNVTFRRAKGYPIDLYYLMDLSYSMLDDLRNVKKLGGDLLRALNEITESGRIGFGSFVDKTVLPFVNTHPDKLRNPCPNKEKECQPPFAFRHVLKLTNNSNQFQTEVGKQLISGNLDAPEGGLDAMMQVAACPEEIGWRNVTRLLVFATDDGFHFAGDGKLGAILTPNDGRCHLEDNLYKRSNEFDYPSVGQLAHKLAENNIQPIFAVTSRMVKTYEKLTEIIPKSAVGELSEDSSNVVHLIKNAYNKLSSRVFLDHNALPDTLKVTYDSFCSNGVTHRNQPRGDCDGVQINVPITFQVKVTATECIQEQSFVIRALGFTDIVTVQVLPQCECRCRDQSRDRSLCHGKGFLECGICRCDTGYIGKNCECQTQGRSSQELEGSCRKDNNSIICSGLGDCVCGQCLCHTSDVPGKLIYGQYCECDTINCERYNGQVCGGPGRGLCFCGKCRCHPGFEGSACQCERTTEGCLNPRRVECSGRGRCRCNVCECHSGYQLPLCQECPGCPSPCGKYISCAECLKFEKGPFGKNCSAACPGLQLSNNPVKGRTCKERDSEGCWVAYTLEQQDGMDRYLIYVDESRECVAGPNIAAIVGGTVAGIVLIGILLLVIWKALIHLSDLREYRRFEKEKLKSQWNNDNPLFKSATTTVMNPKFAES

Row | Compound | clearance [1] | half-life [2] | AUC [3] | IC50 [4] | other results
1 | O=C(NC[C@H](NC(=O)c1c(Cl)cc2c(c1Cl)CCN(C(=O)c1ccc(Cl)cc1)C2)C(=O)O)c1cccs1 | 31 mL/min/kg | 1.4 h | 580 ng·h/mL | 22 nM | 
2 | O=C(NC[C@H](NC(=O)c1c(Cl)cc2c(c1Cl)CCN(C(=O)c1cccc(Cl)c1)C2)C(=O)O)c1cccs1 | > 60 mL/min/kg | 1.1 h | 120 ng·h/mL | 66 nM | 
3 | O=C(NC[C@H](NC(=O)c1c(Cl)cc2c(c1Cl)CCN(C(=O)c1ccc(Cl)cc1)C2)C(=O)O)c1ccccc1 | > 60 mL/min/kg | 0.7 h | 487 ng·h/mL | 29 nM | 
4 | CCOC(=O)[C@H](CNC(=O)c1cccs1)NC(=O)c1c(Cl)cc2c(c1Cl)CCN(C(=O)c1ccc3ccoc3c1)C2 | 5 mL/min/kg | 2.8 h | 16800 ng·h/mL |  | Cmax [5]: 8460 ng/mL; AUC(0-t) [6]: 31900 ng·h/mL; Cmax [7]: 3400 ng/mL; AUC(0-t) [8]: 13900 ng·h/mL; Tmax [9]: 0.8 h; AUC(0-t) [10]: 5540 ng·h/mL; Tmax [11]: 1 h; Activity (Mus musculus [12]): Dose-dependent effect; ED50 (Mus musculus [12]; C57BL/6, po): 6.4 mg/kg; Tmax [13]: 0.8 h; Papp B→A [14]: 10 ×10⁻⁶ cm/s; bioavailability [15]: 31%; Papp A→B [16]: 8.5 ×10⁻⁶ cm/s; bioavailability [17]: 27%; bioavailability [18]: 18%; Cmax [19]: 2120 ng/mL
5 | NC[C@H](NC(=O)c1c(Cl)cc2c(c1Cl)CCN(C(=O)c1ccc(Cl)cc1)C2)C(=O)O |  |  |  | > 1000 nM | 
6 | O=C(NC[C@H](NC(=O)c1c(Cl)cc2c(c1Cl)CCN(C(=O)c1cc3ccccc3o1)C2)C(=O)O)c1cccs1 | > 60 mL/min/kg | 1.5 h | 1260 ng·h/mL | 5 nM | 
7 | CC(=O)N1CCc2c(cc(Cl)c(C(=O)N[C@@H](CNC(=O)c3cccs3)C(=O)O)c2Cl)C1 |  |  |  | > 1000 nM | 
8 | CC(=O)NC[C@H](NC(=O)c1c(Cl)cc2c(c1Cl)CCN(C(=O)c1ccc(Cl)cc1)C2)C(=O)O |  |  |  | 620 nM | 
9 | O=C(NC[C@H](NC(=O)c1c(Cl)cc2c(c1Cl)CCN(C(=O)c1ccc(Cl)cc1)C2)C(=O)O)c1ccco1 |  |  |  | 51 nM | 
10 | O=C(NC[C@H](NC(=O)c1c(Cl)cc2c(c1Cl)CCN(C(=O)c1ccc3c(c1)OCC3)C2)C(=O)O)c1cccs1 | 19 mL/min/kg | 1.1 h | 4870 ng·h/mL | 13 nM | 
11 | O=C(N[C@@H](CNC(=O)C1CCCCC1)C(=O)O)c1c(Cl)cc2c(c1Cl)CCN(C(=O)c1ccc(Cl)cc1)C2 |  |  |  | 540 nM | 
12 | O=C(N[C@@H](Cc1c[nH]c2ccccc12)C(=O)O)c1c(Cl)cc2c(c1Cl)CCN(C(=O)c1ccc(Cl)cc1)C2 |  |  |  | 810 nM | 
13 | O=C(NC[C@H](NC(=O)c1c(Cl)cc2c(c1Cl)CCN(C(=O)c1ccc3ccoc3c1)C2)C(=O)O)c1cccs1 | 3.2 mL/min/kg | 3 h | 5500 ng·h/mL | 9 nM | Activity (Mus musculus [20]): Dose-dependent effect; ED50 (Mus musculus [20]; C57BL/6, iv): 0.038 mg/kg; Papp B→A [14]: 0.3 ×10⁻⁶ cm/s; Papp A→B [16]: 0.34 ×10⁻⁶ cm/s
14 | O=C(NC[C@H](NC(=O)c1c(Cl)cc2c(c1Cl)CCN(C(=O)c1ccccc1)C2)C(=O)O)c1cccs1 |  |  |  | 79 nM | 
15 | Cc1ccc(C(=O)N2CCc3c(cc(Cl)c(C(=O)N[C@@H](CNC(=O)c4cccs4)C(=O)O)c3Cl)C2)cc1 |  |  |  | 10 nM | 
16 | Cc1cccc(C(=O)N2CCc3c(cc(Cl)c(C(=O)N[C@@H](CNC(=O)c4cccs4)C(=O)O)c3Cl)C2)c1 |  |  |  | 90 nM | 
17 | O=C(NC[C@H](NC(=O)c1c(Cl)cc2c(c1Cl)CCN(C(=O)/C=C/c1ccco1)C2)C(=O)O)c1cccs1 |  |  |  | 25 nM | 
18 | O=C(NC[C@H](NC(=O)c1c(Cl)cc2c(c1Cl)CCN(C(=O)C1CCCCC1)C2)C(=O)O)c1cccs1 |  |  |  | > 1000 nM | 
19 | O=C(N[C@@H](Cc1cccc(O)c1)C(=O)O)c1c(Cl)cc2c(c1Cl)CCN(C(=O)c1ccc(Cl)cc1)C2 |  |  |  | > 1000 nM | 
20 | Cc1ccccc1C(=O)N1CCc2c(cc(Cl)c(C(=O)N[C@@H](CNC(=O)c3cccs3)C(=O)O)c2Cl)C1 |  |  |  | 460 nM | 
